Data taken from PubChem BioAssay AID1626 (SRMLSC, 2009).

System: M. tuberculosis H37Rv growth inhibition
Test: M. tuberculosis H37Rv growth inhibitors, H37Rv strain (AID 1626)
Details: for CC50: measured here: Vero cell cytotoxicity; for IC90: measured here: IC90 against H37Rv

**Q.** Which CC50 does the source give for Cc1cc(NC(=O)c2ccc(C)s2)n(-c2nc3ccccc3[nH]2)n1 here?
**A.** > 40 µM

**Q.** How did the IC50 turn out when Cc1ccc(Nc2nnc(SCC(=O)Nc3cccnc3Cl)s2)cc1C was run?
**A.** 1.63 µM

**Q.** What about the IC90 of the same compound?
**A.** 3.5 µM

**Q.** Which results are given for CCOC(=O)C1=C(c2ccccc2)NC(N)=NC1c1ccc(OCc2ccc(Cl)cc2)c(OC)c1 (stereo not given)?
**A.** IC50: 4.55 µM; IC90: 5.57 µM; CC50: 22.6 µM

**Q.** O=C1C2C3C=CC(C3)C2C(=O)N1c1ccc(-c2nc3ccccc3c(=O)o2)cc1 (stereo not given) was tested. Which IC50 did it give?
**A.** 9.33 µM

**Q.** And the IC90?
**A.** 23.1 µM

**Q.** For CN(C)CCCNc1cc(C(C)(C)C)nc2c(-c3ccc(Cl)cc3)cnn12, which IC50 is on record?
**A.** 0.874 µM

**Q.** What about the IC90 of the same compound?
**A.** 1.37 µM

**Q.** And the CC50?
**A.** 9.25 µM

**Q.** How did the IC90 turn out when Cc1cc(-c2ccc(/C=N/n3cnnc3)o2)ccc1Cl was run?
**A.** > 100 µM

**Q.** With CCOc1cc(/C=C2\SC(=N)N(c3nccs3)C2=O)ccc1OCCN1CCOCC1 as the compound, how does the IC50 read?
**A.** 0.393 µM

**Q.** And the IC90?
**A.** 1.02 µM

**Q.** What about the CC50 of the same compound?
**A.** 19.1 µM

**Q.** How did the IC50 turn out when COc1ccc(Nc2cc(C)nc(-n3nc(C)cc3C)n2)cc1 was run?
**A.** 6.15 µM

**Q.** And the IC90?
**A.** > 100 µM

**Q.** And the CC50?
**A.** > 40 µM

**Q.** What does the source list for N#C/C(=C/c1ccc(-c2ccc(Br)cc2)o1)C(=O)NC1CCCCC1?
**A.** IC90: > 100 µM; CC50: > 40 µM

**Q.** Which IC50 does the source give for O=C(CNC(=O)/C(=C/c1ccccc1)NC(=O)c1ccc(Br)cc1)OCc1ccccc1 here?
**A.** 4.09 µM

**Q.** What about the IC90 of the same compound?
**A.** 6.63 µM

**Q.** And the CC50?
**A.** 15.3 µM

**Q.** With COc1ccc(NC(=O)CSC2=C(C#N)C(c3ccco3)C(C(=O)Nc3nc4ccccc4s3)=C(C)N2)cc1 (stereo not given) as the compound, how does the IC50 read?
**A.** 14 µM

**Q.** What about the IC90 of the same compound?
**A.** > 100 µM

**Q.** And the CC50?
**A.** > 40 µM

**Q.** O=C(OCC(=O)N1CCc2ccccc21)c1ccc(Cl)nc1 was tested. Which IC50 did it give?
**A.** 14.2 µM

**Q.** What about the IC90 of the same compound?
**A.** > 100 µM

**Q.** For CCCCCCCOc1ccc(OC(=O)c2cccnc2)cc1, which IC50 is on record?
**A.** 6.32 µM

**Q.** And the IC90?
**A.** > 100 µM

**Q.** And the CC50?
**A.** 15.4 µM

**Q.** With Cc1ccc(NCCC(=O)c2cccs2)cc1 as the compound, how does the IC50 read?
**A.** 24.8 µM

**Q.** And the IC90?
**A.** 32.7 µM

**Q.** Which IC50 does the source give for OC(CN1CCN(c2ccccn2)CC1)Cn1c2ccc(Cl)cc2c2cc(Cl)ccc21 (stereo not given) here?
**A.** 2.31 µM

**Q.** What about the IC90 of the same compound?
**A.** 3.12 µM

**Q.** What about the CC50 of the same compound?
**A.** 21.5 µM

**Q.** How did the IC50 turn out when COc1ccc(N=C/C=C2/C=C(c3ccccc3)OC(C)(C)O2)cc1 was run?
**A.** 63.4 µM

**Q.** And the IC90?
**A.** > 100 µM

**Q.** For CC(=O)Nc1ccc(NC(=O)c2ccc(C3SCC(=O)N3CCc3ccccc3)cc2)cc1 (stereo not given), which IC90 is on record?
**A.** > 100 µM

**Q.** Cc1ccc(-c2noc(CCC(=O)NCCCN3CCN(c4cccc(Cl)c4)CC3)n2)cc1 was tested. Which IC50 did it give?
**A.** 9.9 µM

**Q.** What about the IC90 of the same compound?
**A.** 13.2 µM

**Q.** And the CC50?
**A.** > 40 µM

**Q.** With c1ccc(C2=Nc3ccccc3OC2)cc1 as the compound, how does the IC50 read?
**A.** 4.73 µM

**Q.** And the IC90?
**A.** 8.31 µM

**Q.** Which IC50 does the source give for Cc1ccccc1NC(=O)/C=C/c1ccc([N+](=O)[O-])s1 here?
**A.** 1.46 µM

**Q.** And the IC90?
**A.** 1.92 µM

**Q.** And the CC50?
**A.** 18.6 µM

**Q.** With Nc1cc2nc3ccccc3oc-2cc1=O as the compound, how does the IC50 read?
**A.** 0.368 µM

**Q.** And the IC90?
**A.** 0.916 µM

**Q.** And the CC50?
**A.** > 40 µM

**Q.** Which results are given for O=C(Nc1ccccc1F)C(=Cc1sc(N2CCOCC2)nc1-c1ccccc1)C(=O)Nc1ccccc1F?
**A.** IC50: 51 µM; IC90: > 100 µM; CC50: > 40 µM

**Q.** With Cc1ccc(NC(=O)NC2CCCCC2)cc1Cl as the compound, how does the IC50 read?
**A.** 6.04 µM

**Q.** And the IC90?
**A.** > 100 µM

**Q.** And the CC50?
**A.** > 40 µM

**Q.** For O=C(N[C@H](CO)[C@H](O)c1ccc([N+](=O)[O-])cc1)C(Cl)Cl, which IC50 is on record?
**A.** 4.82 µM

**Q.** And the IC90?
**A.** 7.7 µM

**Q.** What about the CC50 of the same compound?
**A.** > 40 µM

**Q.** Which results are given for O=C(Nc1nnc(-c2ccc3c(c2)CCCC3)o1)c1ccc(Cl)cc1Cl?
**A.** IC50: 0.625 µM; IC90: 0.962 µM; CC50: > 40 µM

**Q.** For N=C(N)c1ccc(OCCCCCOc2ccc(C(=N)N)cc2)cc1, which IC50 is on record?
**A.** 1.51 µM

**Q.** What about the IC90 of the same compound?
**A.** 1.72 µM

**Q.** And the CC50?
**A.** > 40 µM

**Q.** CN(C)c1ccc(N=Nc2ccccc2C(=O)OCC(=O)NCC2CCCCC2)cc1 was tested. Which IC50 did it give?
**A.** 7.74 µM

**Q.** And the IC90?
**A.** 17.2 µM

**Q.** Which results are given for CCOC(=O)C1CCCc2c1[nH]c1c(C(N)=O)cccc21 (stereo not given)?
**A.** IC50: 3.38 µM; IC90: 29.1 µM

**Q.** For CCOc1ccc(N=CC2=C(O)CC(c3ccco3)CC2=O)cc1 (stereo not given), which IC50 is on record?
**A.** 5.31 µM

**Q.** And the IC90?
**A.** > 100 µM

**Q.** Which IC50 does the source give for O=C(CCC(=O)OCc1ccc(C(=O)Oc2ccccc2)cc1)Nc1cccc2ccccc12 here?
**A.** 7.06 µM

**Q.** What about the IC90 of the same compound?
**A.** 10.1 µM

**Q.** What about the CC50 of the same compound?
**A.** > 40 µM

**Q.** Which results are given for Cc1ccc(Nc2c(-c3ccccn3)nc3cc(C)ccn23)cc1?
**A.** IC50: 1.38 µM; IC90: 1.55 µM; CC50: 1.39 µM

**Q.** COc1cc(OC)cc(C(=O)Nc2nc3ccccc3[nH]2)c1 was tested. Which IC50 did it give?
**A.** 15.9 µM

**Q.** What about the IC90 of the same compound?
**A.** > 100 µM

**Q.** What about the CC50 of the same compound?
**A.** > 40 µM
